Test results published in ChEMBL document CHEMBL1158277, “N -(Indol-3-ylethyl)-2-hydroxy-3-methylpentanamide, a Novel Indole Derivative from Xenorhabdus nematophilus” (J Nat Prod, 1996).
Calls of active or inactive are those of the source. No cut-off for these calls is given here.

Tested on: Bacillus subtilis
Experiment: Antibacterial activity against Bacillus subtilis at 100 ug/mL
Format: functional, organism-based

## CC[C@H](C)[C@@H](O)C(=O)NCCc1c[nH]c2ccccc12
  Activity: inactive
